Measurements from patent publication US20050282840A1, “Methods of modulating neurotrophin-mediated activity” (PainCeptor Pharma Corporation, priority 2004, published 2005).
Like-named read-outs stand apart in the source and are kept apart here.

Legend:
[1] = system: p75^NTR receptors (PC12 cells); test: Basic screening assay: binding of 125I-NGF to PC12 cells; conditions: test compound 50 μM, 0.5 nM 125I-NGF, PC12 cells, 2 h at 4° C., specific binding as percent of control
Protocol: (§1) The compounds were screened for effects on binding of ^125I-BDNF or ^125I-NGF to PC12 cells (p75^NTR receptors), and those that inhibited binding were further tested to determine the EC50 for this inhibition.
(§2) PC12 cells were cultured and prepared for binding assays as described in Example 1.
Lyophilized Serotec mouse 2.5S NGF (Cedarlane Laboratories, Toronto, Canada, cat. # PMP 04Z) was reconstituted under sterile conditions to 1 mg/mL (38 μM) in sterile 0.2% acetic acid, and 100 μL or 50 μL aliquots were stored frozen at −80° C.
(§3) Lypophilized Peprotech human recombinant BDNF (Cedarlane Laboratories, Toronto, Canada, cat. # PE 450-02-10) was reconstituted under sterile conditions to 3.5 μM in sterile HKR/1%BSA, and either used immediately or stored in aliquots of 20 μl at −80° C. Immediately prior to use, a 15 nM (30×) solution of ^125I-BDNF or ^125I-NGF was prepared in HKR buffer, and was used at 0.5 nM final concentration.
(§4) Test Compounds were dissolved to 10 mM in DMSO, and those that were not initially soluble were warmed to 40-50° C. and vortexed. Those compounds that were still not in solution were reported as such. Compounds were then stored in this form at −20° C. until use. Immediately before experiments, 100 mM compounds were diluted to 10 mM in DMSO (1:10), followed by a further dilution to 1 mM (1:10) with distilled water, and a further dilution to 500 μM (1:1) with HKR.
(§5) Assays to determine maximum binding (Bmax), non-specific binding (NSB), and binding in the presence of each test compound (e.g., x, y) were performed at least in duplicate. In a total volume of 300 μL, 4×10^6 PC12 cells were incubated, rotating for 2 h at 4° C. with the following:
(§6) At the conclusion of the binding reaction, 100 μL aliquots of the reaction mixtures were carefully layered over 200 μL of a 10% glycerol solution in a 0.4 mL tube, and subjected to centrifugation in a microcentrifuge for 2 minutes at half maximum speed. The cell pellets containing the bound ^125I-BDNF or ^125I-NGF were then measured using a gamma counter. The mean values of the replicates were then calculated to determine the value for maximum binding (Bmax) and nonspecific binding (NSB), and binding in the presence of test compound at 50 μM (Bx). Specific binding (SB) was measured by subtracting the NSB from the Bmax. Specific binding in the presence of the test compound (SBx) was determined by subtracting the NSB from the Bx for each test compound; and each SBx was divided by SB and multiplied by 100 to give the specific binding in the presence of the compound as a percent of control specific binding.

[2] = biological target: T1, p75^NTR receptors (PC12 cells) (Rattus norvegicus, UniProt P07174); test: Basic screening assay: binding of 125I-BDNF to PC12 cells; conditions: read-out: BDNF Activity % Maximal Binding
T1 construct: endogenous in cells; host or cells: PC12 cells
T1 sequence (P07174 30-425): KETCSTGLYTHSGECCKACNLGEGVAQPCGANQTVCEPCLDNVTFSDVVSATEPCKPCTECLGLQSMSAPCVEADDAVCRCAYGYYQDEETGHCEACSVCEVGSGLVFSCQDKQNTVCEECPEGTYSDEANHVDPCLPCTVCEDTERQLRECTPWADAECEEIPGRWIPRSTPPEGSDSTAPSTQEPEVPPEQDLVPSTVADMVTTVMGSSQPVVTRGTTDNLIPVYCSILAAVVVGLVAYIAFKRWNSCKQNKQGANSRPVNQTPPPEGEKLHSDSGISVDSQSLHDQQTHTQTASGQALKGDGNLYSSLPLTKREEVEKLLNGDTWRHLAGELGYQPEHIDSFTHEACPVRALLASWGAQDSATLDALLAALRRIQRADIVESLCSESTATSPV
T1 sequence (P23560 129-247 partner): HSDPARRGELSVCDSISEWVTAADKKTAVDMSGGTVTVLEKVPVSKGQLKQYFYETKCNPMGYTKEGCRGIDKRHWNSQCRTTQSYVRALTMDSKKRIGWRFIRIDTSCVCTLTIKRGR
Protocol: as §1, §2, §3, §4, §5
as §6, with “Bmax.” for “Bmax. Specific binding in the presence of the test compound (SBx) was determined by subtracting the NSB from the Bx for each test compound; and each SBx was divided by SB and multiplied by 100 to give the specific binding in the presence of the compound as a percent of control specific binding.”

[3] = Table 4, test compound 50 μM, 0.5 nM 125I-BDNF, PC12 cells, 2 h at 4° C., specific binding as percent of control
[4] = Table 1, test compound 50 μM, 0.5 nM 125I-BDNF, PC12 cells, 2 h at 4° C., specific binding as percent of control

Compound	NGF Activity % Maximal Binding ([1]; Table 4)	activity at 50 µM [2, 3] [%]	NGF Activity % Maximal Binding ([1]; Table 1)	further results
COC(=O)c1ccc(-c2ccc(/C=C3/NC(=O)N(c4cccc(Cl)c4)C3=O)o2)cc1 [Compound 128, 4-{5-[1-(3-Chlorophenyl)-2,5-dioxo-imidazolidin-4-ylidenemethyl]furan-2-yl}benzoic acid methyl ester]	* (50 < *)	> 50	–	–
Cc1cc([N+](=O)[O-])c(C)cc1-c1ccc(C=C2C(=O)NC(=O)NC2=O)o1 [Compound 18, 5-[5-(2,5-Dimethyl-4-nitrophenyl)furan-2-ylmethylene]-pyrimidine-2,4,6-trione]	–	–	* (50 < *)	activity at 50 µM [2]: 0 to 10%
Cc1cc(-c2ccc(C=C3C(=O)NC(=O)NC3=O)o2)ccc1[N+](=O)[O-] [Compound 96, 5-[5-(3-Methyl-4-nitrophenyl)furan-2-ylmethylene]-pyrimidine-2,4,6-trione]	* (50 < *)	–	–	activity at 50 µM [2]: > 50%
O=C1NC(=O)N(Cc2ccccc2)C(=O)/C1=C/c1ccc(-c2cccc(C(=O)O)c2)o1 [Compound 122, 3-[5-(1-benzyl-2,4,6-trioxo-tetrahydro-pyrimidin-5-ylidenemethyl)furan-2-yl]benzoic acid]	* (50 < *)	–	–	activity at 50 µM [2]: > 50%
COC(=O)c1ccc(-c2ccc(/C=C3/NC(=O)N(c4cccc(Cl)c4)C3=O)o2)c(C)c1 [Compound 135, 4-{5-[1-(3-Chlorophenyl)-2,5-dioxo-imidazolidin-4-ylidenemethyl]furan-2-yl}-3-methylbenzoic acid methyl ester]	* (50 < *)	> 50	–	–
COc1cc([N+](=O)[O-])ccc1-c1ccc(/C=C2/NC(=O)N(c3cccc(Cl)c3)C2=O)o1 [Compound 137, 3-(3-Chlorophenyl)-5-[5-(2-methoxy-4-nitrophenyl)furan-2-ylmethylene]-imidazolidine-2,4-dione]	* (50 < *)	> 50	–	–
O=C1NN(c2ccc(F)cc2)C(=O)C1=Cc1ccc(-c2ccc([N+](=O)[O-])cc2)o1 [Compound 119, 1-(4-Fluorophenyl)-4-[5-(4-nitrophenyl)furan-2-ylmethylene]-pyrazolidine-3,5-dione]	* (50 < *)	> 50	–	–
Cc1cc(-c2ccc(C=C3SC(=S)N(CC(=O)O)C3=O)o2)ccc1[N+](=O)[O-] [Compound 15, {5-[5-(3-Methyl-4-nitrophenyl)furan-2-ylmethylene]-4-oxo-2-thioxo-thiazolidin-3-yl}-acetic acid]	–	–	–	activity at 50 µM [2, 4]: 0 to 10%
CCOC(=O)c1ccc(-c2ccc(/C=C3/C(=O)NN(c4cccc(C)c4)C3=O)o2)cc1 [Compound 63, 4-[5-(3,5-Dioxo-1-m-tolyl-pyrazolidin-4-ylidenemethyl)furan-2-yl]benzoic acid ethyl ester]	–	–	* (50 < *)	activity at 50 µM [2, 4]: 40 to 50%
CCOC(=O)CN1C(=O)S/C(=C/c2ccc(-c3ccc(C(=O)O)cc3C)o2)C1=O [Compound 121, 4-[5-(3-Ethoxycarbonylmethyl-2,4-dioxo-thiazolidin-5-ylidenemethyl)furan-2-yl]-3-methylbenzoic acid]	* (50 < *)	> 50	–	–
COc1ccc(-c2ccc(C=C3C(=O)N(C)C(=O)N(C)C3=O)o2)cc1[N+](=O)[O-] [Compound 31, 5-[5-(4-Methoxy-3-nitrophenyl)furan-2-ylmethylene]-1,3-dimethyl-pyrimidine-2,4,6-trione]	–	–	* (50 < *)	activity at 50 µM [2]: 10 to 20%
Cc1cc(C(=O)O)ccc1-c1ccc(/C=C2/NC(=O)NC2=O)o1 [Compound 41, 4-[5-(2,5-Dioxo-imidazolidin-4-ylidenemethyl)furan-2-yl]-3-methylbenzoic acid]	–	–	* (50 < *)	activity at 50 µM [2, 4]: 20 to 30%
Cc1ccc([N+](=O)[O-])cc1-c1ccc(/C=C2/SC(=O)NC2=O)o1 [Compound 88, 5-[5-(2-Methyl-5-nitrophenyl)furan-2-ylmethylene]-thiazolidine-2,4-dione]	* (50 < *)	> 50	–	–
O=C(O)CCN1C(=O)C(=Cc2ccc(-c3ccc([N+](=O)[O-])cc3)o2)SC1=S [Compound 10, 3-{5-[5-(4-Nitrophenyl)furan-2-ylmethylene]-4-oxo-2-thioxo-thiazolidin-3-yl}-propionic acid]	–	–	* (50 < *)	activity at 50 µM [2, 4]: 0 to 10%
COC(=O)c1cccc(-c2ccc(/C=C3/SC(=S)N(CC(=O)O)C3=O)o2)c1 [Compound 69, 3-[5-(3-Carboxymethyl-4-oxo-2-thioxo-thiazolidin-5-ylidenemethyl)furan-2-yl]benzoic acid methyl ester]	–	–	–	NGF Activity % Maximal Binding ([1]; Table 2): XX (30 < XX < 40); activity at 50 µM ([2]; Table 2, test compound 50 μM, 0.5 nM 125I-BDNF, PC12 cells, 2 h at 4° C., specific binding as percent of control): 0 to 10%
O=C1NC(=S)S/C1=C/c1ccc(-c2ccc([N+](=O)[O-])cc2Br)o1 [Compound 100, 5-[5-(2-Bromo-4-nitrophenyl)furan-2-ylmethylene]-2-thioxo-thiazolidin-4-one]	* (50 < *)	> 50	–	–
COC(=O)CN1C(=S)N(C)C(=O)/C1=C/c1ccc(-c2ccc([N+](=O)[O-])cc2)o1 [Compound 141, {3-Methyl-5-[5-(4-nitrophenyl)furan-2-ylmethylene]-4-oxo-2-thioxo-imidazolidin-1-yl}-acetic acid methyl ester]	* (50 < *)	> 50	–	–
O=C1C(=Cc2ccc(-c3ccc([N+](=O)[O-])cc3)o2)SC(=S)N1c1ccc(O)cc1 [Compound 142, 3-(4-Hydroxyphenyl)-5-[5-(4-nitrophenyl)furan-2-ylmethylene]-2-thioxo-thiazolidin-4-one]	* (50 < *)	> 50	–	–
Cc1cccc(N2NC(=O)C(=Cc3ccc(-c4ccc(Cl)c(C(=O)O)c4)o3)C2=O)c1 [Compound 134, 2-Chloro-5-[5-(3,5-dioxo-1-m-tolyl-pyrazolidin-4-ylidenemethyl)furan-2-yl]benzoic acid]	* (50 < *)	> 50	–	–
Cc1ccc(C(=O)O)cc1-c1ccc(/C=C2/NC(=O)N(c3ccccc3)C2=O)o1 [Compound 16, 3-[5-(2,5-Dioxo-1-phenyl-imidazolidin-4-ylidenemethyl)furan-2-yl]-4-methylbenzoic acid]	–	–	* (50 < *)	activity at 50 µM [2, 4]: 0 to 10%
